Data as given in patent US10975119B2, “Selective cysteine protease inhibitors and uses thereof” (Genesis Technologies Limited, priority 2011, dated 2021).
Entries after “also recorded” stand apart in the source; their conditions may differ. Where two headings read alike, the source gives them in different places.

Columns and labels:
Format in all cases: biochemical
[1] = test system: Caspases 1 through 10; experiment: Caspase-1 to Caspase-10 inhibitor screening, profile across the panel
Method: (§1) The efficacy of an array of compounds as an inhibitor of the activity of Caspases 1 through 10 were assessed by using the respective Caspase Inhibitor Drug Screening Kits (Caspase-1 Catalog #: K151-100, Caspase-2 Catalog #: K152-100, Caspase-3 Catalog #: K153-100, Caspase-4 Catalog #: K154-100, Caspase-5 Catalog #: K155-100, Caspase-6 Catalog #: K156-100, Caspase-7 Catalog #: K157-100, Caspase-8 Catalog #: K158-100, Caspase-9 Catalog #: K159-100, Caspase-10 Catalog #: K160-100, BioVision) following the instructions of the manufacturer. […] Active caspases cleaved their respective synthetic substrates to release free AFC, which was then quantified by fluorometry.
(§2) Briefly, the compounds were first tested at 2 concentrations (10 uM and 100 uM final) to determine if there is a hit. […] Each condition was tested in duplicates. […] For some samples, a smaller range of concentrations was tested depending on the % Inhibition results at 10 uM and 100 uM. Results were summarized in Tables 2, 3, and 4 herein after. Table 2 represents the IC50 values (uM) of the test compounds as inhibitors of the activity of the various caspases.
(§3) (*) RFU (no inhibitor control)—RFU (compound at a specific concentration)
(§4) RFU (no inhibitor control)

[2] = biological target: T1, Caspase-3 (Homo sapiens, UniProt P42574); experiment: Caspase-3 inhibitor screening assay (BioVision kit, DEVD-AFC); conditions: for inhibition at 10 µM: read-out: % Inhibition at 10 uM Casp3; for inhibition at 100 µM: read-out: % Inhibition at 100 uM Casp3
T1 construct: mixing the compounds with the respective active caspases; purchased BioVision K153-100
T1 sequence (P42574 29-175 limits assumed): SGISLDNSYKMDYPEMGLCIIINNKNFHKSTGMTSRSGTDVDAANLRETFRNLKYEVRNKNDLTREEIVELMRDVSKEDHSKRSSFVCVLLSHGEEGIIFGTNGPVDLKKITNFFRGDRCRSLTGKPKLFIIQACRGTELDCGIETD
T1 sequence (P42574 176-277 limits assumed): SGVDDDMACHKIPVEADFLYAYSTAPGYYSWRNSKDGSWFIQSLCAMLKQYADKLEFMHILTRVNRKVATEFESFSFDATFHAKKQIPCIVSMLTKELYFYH
Summary of the method: (§5)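 Fluorometric read-out of free AFC released from the caspase-specific synthetic substrate. IC50 from concentration series, sometimes narrower.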

[3] = biological target: T2, Caspase-4 (Homo sapiens, UniProt P49662); experiment: Caspase-4 inhibitor screening assay (BioVision kit, LEVD-AFC); conditions: for inhibition at 10 µM: read-out: % Inhibition at 10 uM Casp4; for inhibition at 100 µM: read-out: % Inhibition at 100 uM Casp4
T2 construct: mixing the compounds with the respective active caspases; purchased BioVision K154-100
T2 sequence (P49662 81-270 limits assumed): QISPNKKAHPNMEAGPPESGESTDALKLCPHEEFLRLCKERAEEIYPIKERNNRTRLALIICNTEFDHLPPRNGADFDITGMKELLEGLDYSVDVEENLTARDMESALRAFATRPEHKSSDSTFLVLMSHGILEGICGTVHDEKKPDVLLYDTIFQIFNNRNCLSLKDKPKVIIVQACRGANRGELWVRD
T2 sequence (P49662 290-377 limits assumed): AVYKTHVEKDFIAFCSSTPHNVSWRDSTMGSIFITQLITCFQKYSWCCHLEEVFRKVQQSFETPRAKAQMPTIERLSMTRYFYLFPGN
Summary of the method: as §5

[4] = biological target: T3, Caspase-8 (Homo sapiens, UniProt Q14790); experiment: Caspase-8 inhibitor screening assay (BioVision kit, IETD-AFC); conditions: for inhibition at 10 µM: read-out: % Inhibition at 10 uM Casp8; for inhibition at 100 µM: read-out: % Inhibition at 100 uM Casp8
T3 construct: mixing the compounds with the respective active caspases; purchased BioVision K158-100
Summary of the method: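 Each caspase cleaved its own AFC-labelled peptide substrate, and released AFC was read by fluorescence. % inhibition came from RFU against an uninhibited control.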

[5] = biological target: T4, Caspase-2 (Homo sapiens, UniProt P42575); experiment: Caspase-2 inhibitor screening assay (BioVision kit, VDVAD-AFC); conditions: for inhibition at 10 µM: read-out: % Inhibition at 10 uM Casp2; for inhibition at 100 µM: read-out: % Inhibition at 100 uM Casp2; for IC50: read-out: IC50 Casp2
T4 construct: mixing the compounds with the respective active caspases; purchased BioVision K152-100
T4 sequence (P42575 170-325 limits assumed): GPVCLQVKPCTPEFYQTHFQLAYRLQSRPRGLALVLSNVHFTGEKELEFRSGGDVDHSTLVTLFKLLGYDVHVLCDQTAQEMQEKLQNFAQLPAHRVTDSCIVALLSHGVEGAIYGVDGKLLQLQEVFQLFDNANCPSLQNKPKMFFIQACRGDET
T4 sequence (P42575 334-452 limits assumed): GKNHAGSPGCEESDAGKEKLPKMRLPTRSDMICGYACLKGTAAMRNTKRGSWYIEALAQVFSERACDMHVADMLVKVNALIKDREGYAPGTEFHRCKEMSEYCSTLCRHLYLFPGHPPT
Method: as §1, §2, §3, §4

T3 sequence (Q14790 217-374 limits assumed): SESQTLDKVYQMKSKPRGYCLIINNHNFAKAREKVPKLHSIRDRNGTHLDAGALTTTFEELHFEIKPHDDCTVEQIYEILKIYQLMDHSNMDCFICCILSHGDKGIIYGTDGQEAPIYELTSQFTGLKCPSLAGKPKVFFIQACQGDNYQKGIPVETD
T3 sequence (Q14790 385-479 limits assumed): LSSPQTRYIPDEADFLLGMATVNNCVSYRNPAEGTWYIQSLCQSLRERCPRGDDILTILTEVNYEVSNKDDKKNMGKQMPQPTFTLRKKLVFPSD

SMILES	inhibition profile across caspases, in words [1]	inhibition at 10 µM [2]	inhibition at 100 µM [2]	IC50 ([2]; read-out: IC50 Casp3)	inhibition at 10 µM [3]	inhibition at 100 µM [3]	IC50 ([3]; read-out: IC50 Casp4)	IC50 ([3]; read-out: potency (IC50) against caspase-4)	inhibition at 10 µM [4]	inhibition at 100 µM [4]	IC50 ([4]; read-out: IC50 Casp8)	inhibition at 10 µM [5]	inhibition at 100 µM [5]	IC50 [5]	IC50 ([2]; read-out: potency (IC50) against caspase-3)	IC50 ([4]; read-out: potency (IC50) against caspase-8)
CC(C)(C)[C@H](NC(=O)c1ccc2ccccc2n1)C(=O)N1CCC[C@@H]1C(=O)N[C@H](/C=C/S(C)(=O)=O)CC(=O)O [Compound 6, 2-Quinoline carbonyl-t-Leu-pro-Asp methyl vinyl sulfone]	inhibits selectively caspase-1; also recorded: very strong inhibitory activity towards pro-inflammatory Caspases	1%	1%	> 100 µM	99%	100%	1.55 µM	1.55 µM	0%	22%	> 100 µM	2%	10%	> 100 µM	–	–
CCOC(=O)/C=C/[C@H](CC(=O)O)NC(=O)[C@@H](NC(=O)[C@@H](NC(=O)[C@H](CC(=O)O)NC(=O)OCc1ccccc1)c1ccccc1)C(C)C [Compound 105, Z-Asp-Phg-Val-Asp Ethyl Vinyl Ester]	high inhibitory activity towards the effector (executioner) Caspases: Caspase-3 and -7	99%	100%	0.03 µM	100%	98%	0.51 µM	–	77%	79%	2.62 µM	0%	17%	–	0.027 µM	2.62 µM
CCOC(=O)/C=C/[C@H](CC(=O)O)NC(=O)[C@H]1CCCN1C(=O)[C@@H](NC(=O)c1ccc(N)c(Cl)c1)C(C)(C)C [Compound 116, (4-amino-3-chlorobenzene carbonyl)-t-Leu-Pro-Asp Ethyl vinyl ester]	stronger inhibitory activity towards pro-inflammatory caspases Caspase-1 and -5	–	–	33.4 µM	–	–	0.03 µM	–	–	–	0.6 µM	–	–	> 100 µM	–	–
CCOC(=O)/C=C/[C@H](CC(=O)O)NC(=O)[C@H]1CCCN1C(=O)[C@@H](NC(=O)c1ccc2ccccc2n1)C(C)(C)C [Compound 118, 2-Quinoline carbonyl-t-Leu-Pro-Asp Ethyl Vinyl Ester]	very strong inhibitory activity towards pro-inflammatory Caspases	0%	15%	> 100 µM	100%	100%	0.6 µM	–	36%	89%	21.1 µM	4%	10%	> 100 µM	–	–
CCOC(=O)/C=C/[C@H](CC(=O)O)NC(=O)[C@@H](NC(=O)[C@H](CCC(=O)O)NC(=O)[C@@H](NC(=O)OCc1ccccc1)C(C)C)C(C)CC (stereo partly drawn) [Compound 124, Z-Val-Glu-Ile-Asp-Ethyl Vinyl ester]	pan-caspase inhibitor	–	–	0.58 µM	–	–	1.27 µM	–	–	–	0.19 µM	–	–	10 µM	–	–
